# Values quoted from earlier work as cited in PubChem BioAssay AID1259409 (Chemical Carcinogenesis Research Information System (CCRIS), 2018).
# Tested on: rodent chemically induced tumor inhibition, incidence and multiplicity
# Assay: CCRIS tumor inhibitor studies
# Details: Carcinogen: BENZO[A]PYRENE; 50-32-8; Dose [Inhibitor]: 0; 4.7 MICROMOLAR/D IN 0.1 ML PEANUT OIL BEGINNING 2 WK PRIOR TO CARCINOGEN TREATMENT AND CONTINUING TO 2 WK POST CARCIN; Route [Inhibitor]: GAVAGE; Species: MOUSE; Strain/Sex: SWISS/FEMALE; Target Tissue: Type of Lesion: FORESTOMACH: TUMOR; Dose [Carcinogen]: 1 MG 2/WK IN 0.1 ML PEANUT OIL FOR 4 WK; Promoter: NONE USED
smiles,measurement,value
CC1=C(/C=C/C(C)=C/C=C/C(C)=C/C=C/C=C(C)/C=C/C=C(\C)C=O)C(C)(C)CCC1,"tumour outcome (control, treated, inhibition, significance)","20/20 (100%), 5/20 (25%), 75%, p<0.001"
